# Measurements taken from ChEMBL document CHEMBL1201862, “PubChem BioAssay data set” (2004).
# Active and inactive are the calls of the source. Cut-off read from the data, not from the text of the source, for most assays here: actives have a measured EC50 and inactives only a lower limit.
# Assays:
# [1] = HPDE-C7 pancreatic duct cell viability loss – fluorescence, HTS (AID 430); type: functional, cell-based; conditions: Homo sapiens
# [2] = viability loss of HPDE-C7K cells – cell-based, fluorescence, HTS, primary screen (AID 431); type: functional; conditions: Homo sapiens
# [3] = system: HT-1080; experiment: HT1080 cell viability loss – fluorescence readout (AID 620); type: functional, cell-based; conditions: Homo sapiens
# [4] = target: Luciferin 4-monooxygenase (Photinus pyralis, UniProt P08659); experiment: Counter Screen for Luciferase-based Assay Positives. [Related pubchem assays: 620, 618, 411 ]
# [5] = cells
# [6] = viability of uninfected HEp-2 cells – cell-based, HTS, cytotoxicity control for RSV inhibitor project, dose response (AID 2410); type: functional; conditions: human respiratory syncytial virus
# [7] = target: T1, Streptokinase A (Streptococcus pyogenes serotype M1, UniProt P10520); experiment: viability-normalized secreted streptokinase activity reduction – plasminogen activation absorbance, OD405, dose response (AID 1914); type: functional, Streptococcus pyogenes M1 GAS;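 note: secreted streptokinase activity via plasminogen activation per viability signal from cell pellet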
# T1 sequence (P10520 whole entry): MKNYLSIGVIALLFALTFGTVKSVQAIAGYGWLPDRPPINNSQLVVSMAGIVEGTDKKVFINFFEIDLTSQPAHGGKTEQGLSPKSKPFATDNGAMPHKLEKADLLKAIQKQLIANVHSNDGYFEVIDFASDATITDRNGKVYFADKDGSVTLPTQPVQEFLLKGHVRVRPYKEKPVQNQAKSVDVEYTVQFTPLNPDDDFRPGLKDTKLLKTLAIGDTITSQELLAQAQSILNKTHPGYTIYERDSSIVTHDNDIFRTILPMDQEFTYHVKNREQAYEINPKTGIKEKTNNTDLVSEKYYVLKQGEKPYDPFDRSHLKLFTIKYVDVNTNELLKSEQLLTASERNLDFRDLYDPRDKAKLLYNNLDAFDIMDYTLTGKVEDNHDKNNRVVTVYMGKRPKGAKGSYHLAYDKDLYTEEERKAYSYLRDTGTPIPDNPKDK
# [8] = system: Streptococcus; experiment: GAS UMAA2166 growth inhibition – luminescence, BacTiterGlo, counter-screen for streptokinase expression inhibitor project, dose response (AID 1915); type: functional, organism-based;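 note: potency for reduction of bacterial viability or growth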
# [9] = target: T2, Leucine aminopeptidase (Plasmodium falciparum 3D7, UniProt Q8IL11); experiment: P. falciparum M17LAP inhibitors, primary screen, biochemical, fluorogenic H-Leu-NHMec substrate, 1536-well (AID 1619); type: functional
# T2 sequence (Q8IL11 whole entry): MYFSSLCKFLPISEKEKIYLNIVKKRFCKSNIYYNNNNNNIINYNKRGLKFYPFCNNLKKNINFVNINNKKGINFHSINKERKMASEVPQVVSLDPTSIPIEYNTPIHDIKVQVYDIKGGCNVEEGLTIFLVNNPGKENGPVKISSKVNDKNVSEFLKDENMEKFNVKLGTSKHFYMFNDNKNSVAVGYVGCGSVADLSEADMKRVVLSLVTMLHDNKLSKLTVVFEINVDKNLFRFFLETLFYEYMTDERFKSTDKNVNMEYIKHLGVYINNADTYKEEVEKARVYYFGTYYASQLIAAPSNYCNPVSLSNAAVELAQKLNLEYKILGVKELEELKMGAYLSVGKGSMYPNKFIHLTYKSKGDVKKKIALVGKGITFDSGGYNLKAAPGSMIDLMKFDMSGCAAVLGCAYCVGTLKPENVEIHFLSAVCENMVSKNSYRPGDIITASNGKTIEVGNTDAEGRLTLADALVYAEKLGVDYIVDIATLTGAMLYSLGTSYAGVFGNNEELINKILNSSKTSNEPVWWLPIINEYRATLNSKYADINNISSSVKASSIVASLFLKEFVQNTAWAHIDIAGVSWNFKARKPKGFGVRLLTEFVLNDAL
# [10] = system: Streptococcus sp. 'group A'; experiment: Streptococcus pyogenes SK(-)GAS viability under kanamycin – luminescence, BacTiterGlo, confirmation, counter-screen for streptokinase expression inhibitor project, dose response (AID 1900); type: functional, organism-based
# [11] = M. tuberculosis H37Rv growth inhibitors, H37Rv strain (AID 1626); type: functional
# Chain of Luciferin 4-monooxygenase (P08659 whole entry): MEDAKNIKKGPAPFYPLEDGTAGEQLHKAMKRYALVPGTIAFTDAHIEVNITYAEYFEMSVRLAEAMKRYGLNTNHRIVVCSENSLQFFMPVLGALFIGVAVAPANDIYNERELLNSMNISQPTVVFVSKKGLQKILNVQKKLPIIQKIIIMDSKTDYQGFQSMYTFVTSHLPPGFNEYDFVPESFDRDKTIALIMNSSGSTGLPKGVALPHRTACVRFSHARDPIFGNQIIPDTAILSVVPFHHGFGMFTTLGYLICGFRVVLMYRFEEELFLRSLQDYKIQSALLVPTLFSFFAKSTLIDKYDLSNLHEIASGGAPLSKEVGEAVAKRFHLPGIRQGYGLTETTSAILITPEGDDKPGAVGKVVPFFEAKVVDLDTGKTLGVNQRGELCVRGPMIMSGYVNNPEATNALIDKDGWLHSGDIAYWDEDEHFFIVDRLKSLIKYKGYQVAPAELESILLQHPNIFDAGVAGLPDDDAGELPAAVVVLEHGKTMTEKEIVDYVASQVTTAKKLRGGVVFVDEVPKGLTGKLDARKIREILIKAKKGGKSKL
compound,measurement,setting,value
O=C1CC(c2ccc3c(c2)OCO3)c2cc3c(cc2N1)OCCO3 (configuration not stated),EC50,[1],> 20 µM (not active)
same,EC50,[2],> 20 µM (not active)
COC(=O)c1ccc(-c2nc(-c3cccs3)no2)cc1,EC50,[3],> 50 µM (not active)
same,EC50,[4],0.76 µM (active)
O=C(c1cc(-c2cccc(O)c2)on1)N1CCCCC1,EC50,[3],> 50 µM (not active)
same,EC50,[4],0.64 µM (active)
O=[N+]([O-])c1ccccc1S(=O)(=O)Nc1cccc(-c2ccc(N3CCCC3)nn2)c1,IC50,[5],5.15 µM (active)
same,CC50,[6],40.6 µM (active)
Cc1sc(NC(=O)C2C3C=CC(C3)C2C(=O)O)c(C(N)=O)c1-c1ccc(C(C)C)cc1 (configuration not stated),EC50,[7],32.2 µM (active)
same,EC50,[8],> 150 µM (not active)
same,IC50,[9],4.99 µM (active)
same,EC50,[10],32.1 µM (active)
COc1ccc(C(=O)Nc2nc3c(s2)CCCC3)cc1S(=O)(=O)N1CCCc2ccccc21,IC50,[5],5.95 µM (active)
same,CC50,[6],3.66 µM (active)
COc1ccc(NC2(C#N)CCCCC2)cc1,IC50,[11],> 100 µM (active)
Cc1ccc(S(=O)(=O)N2CCCC(c3nc(O)c4nnn(Cc5ccc6c(c5)OCCO6)c4n3)C2)cc1 (configuration not stated),IC50,[5],10.2 µM (active)
same,CC50,[6],14.4 µM (active)
